Molecular target: T1, human MC5R (hMC5R) (Homo sapiens, UniProt P33032)
T1 construct: purchased Perkin Elmer RBXMC5M400UA
Assay: Human MC5R radioligand binding assay ([125I] NDP-MSH displacement)
Conditions: hMC5R membranes, [125I] NDP-MSH; tested as trifluoroacetate or hydrochloride salts or free bases; read-out: MC5R radioligand IC50
Procedure: Assessments of compound binding to human MC5R (hMC5R) by displacement of an ^125I-labeled NDP-MSH receptor ligand peptide were performed essentially as described in the data sheets produced by Perkin Elmer to accompany their frozen hMC5R membranes (Perkin Elmer catalog number RBXMC5M400UA).
Na^125I (0.5 mCi, 17.4 Ci/mg) was added to 50 μL sodium phosphate (50 mM, pH 7.4) in an eppendorf tube precoated with IODOGEN. After incubation for 10 mins the phosphate buffer containing the iodine was added to NDP-MSH (10 ul at 1 mg/mL) in a separate eppendorf tube. This was incubated for a further 10 mins. The iodinated NDP-MSH was purified by HPLC on a Zorbax SB 300 column using solvent A: 0.05% TFA and solvent B: 90% acetonitrile 0.045% TFA with a linear gradient, 0-67% B over 60 mins. The ^125I NDP-MSH eluted at 52 min after the unlabeled starting material (48 min) and was counted and stored in the freezer.
Incubation buffer: 25 mM HEPES-KOH (pH 7.0), 1.5 mM CaCl2, 1 mM MgSO4, 0.1 M NaCl, 1 mM 1,10-phenanthroline, and 1 Complete™ protease inhibitor tablet/100 mL (Roche, catalog number 1873580)
Perkin Elmer frozen hMC5 membranes: catalog number RBXMC5M400UA, 0.4 mL/vial; 400 microassays/vial. 0.78 mg/mL protein concentration
Vials of frozen membranes were thawed rapidly immediately before use, diluted with binding buffer and vortexed. Resuspended membranes were kept on ice until they were added to the wells of the plate.
Assays were performed in 96 well polypropylene plates. […] This was incubated for 1 hr at 37° C. […] Non-specific binding just under 5%.
Representative compounds of the present invention were tested for binding in the hMC5R assay as in Example 46, as listed in Table 3. The compounds were tested as their trifluoroacetate or hydrochloride salts, or as their free bases.

T1 sequence (P33032 whole entry): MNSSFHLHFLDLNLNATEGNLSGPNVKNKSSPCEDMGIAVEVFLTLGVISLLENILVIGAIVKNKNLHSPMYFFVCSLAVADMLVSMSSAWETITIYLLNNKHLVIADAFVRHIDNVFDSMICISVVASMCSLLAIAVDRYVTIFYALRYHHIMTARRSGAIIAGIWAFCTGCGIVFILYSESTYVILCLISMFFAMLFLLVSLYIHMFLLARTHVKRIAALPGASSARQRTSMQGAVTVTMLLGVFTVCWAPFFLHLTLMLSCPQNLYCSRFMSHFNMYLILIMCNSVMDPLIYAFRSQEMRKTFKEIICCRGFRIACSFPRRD

| Structure (SMILES) | IC50 [nM] |
| --- | --- |
| O=C(/C=C/c1ccc(Cl)cc1)NC[C@@H]1CCN(CC(c2ccccc2)c2ccccc2)C(=O)[C@H](CC(=O)Nc2ccccn2)N1 [Compound 64, (E)-3-(4-chlorophenyl)-N-(((3S,5S)-1-(2,2-diphenylethyl)-2-oxo-3-(2-oxo-2-(pyridin-2-ylamino)ethyl)-1,4-diazepan-5-yl)methyl)acrylamide] | < 1000 |
| O=C(/C=C/c1ccc(Cl)cc1)NC[C@@H]1CCN(CC(c2ccccc2)c2ccccc2)C(=O)[C@H](Cc2ccccn2)N1 [Compound 45, (E)-3-(4-chlorophenyl)-N-(((3S,5S)-1-(2,2-diphenylethyl)-2-oxo-3-(pyridin-2-ylmethyl)-1,4-diazepan-5-yl)methyl)acrylamide] | < 10000 |
| CCCCCC[C@@H]1N[C@H](CNC(=O)c2ccc3cc(Cl)ccc3c2)CCN(C[C@@H](CC)c2ccccc2)C1=O [Compound 75, 6-chloro-N-(((3S,5S)-3-hexyl-2-oxo-1-((S)-2-phenylbutyl)-1,4-diazepan-5-yl)methyl)-2-naphthamide] | < 100 |
| O=C(/C=C/c1ccc(Cl)cc1)NC[C@@H]1CCN(CC(c2ccccc2)c2ccccc2)C(=O)[C@H](CC(=O)N2CCCCC2)N1 [Compound 65, (E)-3-(4-chlorophenyl)-N-(((3S,5S)-1-(2,2-diphenylethyl)-2-oxo-3-(2-oxo-2-(piperidin-1-yl)ethyl)-1,4-diazepan-5-yl)methyl)acrylamide] | < 1000 |
| CC[C@H](CN1CC[C@@H](CNC(=O)c2ccc3cc(Cl)ccc3c2)N[C@@H](CCOCc2ccccc2)C1=O)c1ccccc1 [Compound 78, N-(((3S,5S)-3-(2-(benzyloxy)ethyl)-2-oxo-1-((S)-2-phenylbutyl)-1,4-diazepan-5-yl)methyl)-6-chloro-2-naphthamide] | < 10000 |
| CC[C@H](CN1CC[C@@H](CNC(=O)c2ccc3cc(Cl)ccc3c2)N[C@@H](CCOC)C1=O)c1ccccc1 [Compound 77, 6-chloro-N-(((3S,5S)-3-(2-methoxyethyl)-2-oxo-1-((S)-2-phenylbutyl)-1,4-diazepan-5-yl)methyl)-2-naphthamide] | < 100 |
| CCCC[C@@H]1N[C@H](CNC(=O)c2ccc3cc(Cl)ccc3c2)CCN(C[C@@H](CC)c2ccccc2)C1=O [Compound 70, N-(((3S,5S)-3-butyl-2-oxo-1-((S)-2-phenylbutyl)-1,4-diazepan-5-yl)methyl)-6-chloro-2-naphthamide] | < 1000 |
| CC[C@H](CN1CC[C@@H](CNC(=O)c2ccc3cc(Cl)ccc3c2)N[C@@H](CCCCO)C1=O)c1ccccc1 [Compound 76, 6-chloro-N-(((3S,5S)-3-(4-hydroxybutyl)-2-oxo-1-((S)-2-phenylbutyl)-1,4-diazepan-5-yl)methyl)-2-naphthamide] | < 100 |
| O=C(/C=C/c1ccc(Cl)cc1)NC[C@@H]1CCN(CC(c2ccccc2)c2ccccc2)C(=O)[C@H](Cc2c[nH]cn2)N1 [Compound 63, (E)-N-(((3S,5S)-3-((1H-imidazol-4-yl)methyl)-1-(2,2-diphenylethyl)-2-oxo-1,4-diazepan-5-yl)methyl)-3-(4-chlorophenyl)acrylamide] | < 10000 |
| Nc1ccccc1C[C@@H]1N[C@H](CNC(=O)/C=C/c2ccc(Cl)cc2)CCN(CC(c2ccccc2)c2ccccc2)C1=O [Compound 68] | < 1000 |
| CCCCN(C)C(=O)CC[C@@H]1N[C@H](CNC(=O)c2ccc3ccccc3c2)CCN(C[C@@H](CC)c2ccccc2)C1=O [Compound 72, N-(((3S,5S)-3-(3-(butyl(methyl)amino)-3-oxopropyl)-2-oxo-1-((S)-2-phenylbutyl)-1,4-diazepan-5-yl)methyl)-2-naphthamide] | < 1000 |
| O=C(NC[C@@H]1CCN(CC(c2ccccc2)c2ccccc2)C(=O)[C@H](CCc2ccccc2)N1)c1ccc2ccccc2c1 [Compound 57, N-(((3S,5S)-1-(2,2-diphenylethyl)-2-oxo-3-phenethyl-1,4-diazepan-5-yl)methyl)-2-naphthamide] | < 1000 |
| CC[C@H](CN1CC[C@@H](CNC(=O)c2ccc3ccccc3c2)N[C@@H](CCC(=O)NC2CCCCC2)C1=O)c1ccccc1 [Compound 73, N-(((3S,5S)-3-(3-(cyclohexylamino)-3-oxopropyl)-2-oxo-1-((S)-2-phenylbutyl)-1,4-diazepan-5-yl)methyl)-2-naphthamide] | < 1000 |
| CC[C@H](CN1CC[C@@H](CNC(=O)c2ccc(Cl)c(Cl)c2)N[C@@H](CCC(=O)N2CCCCC2)C1=O)c1ccccc1 [Compound 67, 3,4-dichloro-N-(((3S,5S)-2-oxo-3-(3-oxo-3-(piperidin-1-yl)propyl)-1-((S)-2-phenylbutyl)-1,4-diazepan-5-yl)methyl)benzamide] | < 10000 |
| CC[C@H](CN1CC[C@@H](CNC(=O)c2ccc3cc(Cl)ccc3c2)N[C@@H](CCC2CCCCC2)C1=O)c1ccccc1 [Compound 74, 6-chloro-N-(((3S,5S)-3-(2-cyclohexylethyl)-2-oxo-1-((S)-2-phenylbutyl)-1,4-diazepan-5-yl)methyl)-2-naphthamide] | < 10000 |
| CC[C@H](CN1CC[C@@H](CNC(=O)c2ccc(Cl)c(Cl)c2)N[C@@H](CCO)C1=O)c1ccccc1 [Compound 80, 3,4-dichloro-N-(((3S,5S)-3-(2-hydroxyethyl)-2-oxo-1-((S)-2-phenylbutyl)-1,4-diazepan-5-yl)methyl)benzamide] | < 10000 |

The next lines start with the values.

| IC50 [nM] | Structure (SMILES) |
| --- | --- |
| < 1000 | Nc1ccccc1C[C@@H]1N[C@H](CNC(=O)c2ccc3ccccc3c2)CCN(CC(c2ccccc2)c2ccccc2)C1=O [Compound 69, N-(((3S,5S)-3-(2-aminobenzyl)-1-(2,2-diphenylethyl)-2-oxo-1,4-diazepan-5-yl)methyl)-2-naphthamide] |
| < 1000 | O=C(NC[C@@H]1CCN(CC(c2ccccc2)c2ccccc2)C(=O)[C@H](Cc2cccnc2)N1)c1ccc2ccccc2c1 [Compound 47, N-(((3S,5S)-1-(2,2-diphenylethyl)-2-oxo-3-(pyridin-3-ylmethyl)-1,4-diazepan-5-yl)methyl)-2-naphthamide] |
| < 1000 | O=C(NC[C@@H]1CCN(CC(c2ccccc2)c2ccccc2)C(=O)[C@H](Cc2ccccc2)N1)c1ccc2ccccc2c1 [Compound 61, N-(((3S,5S)-3-benzyl-1-(2,2-diphenylethyl)-2-oxo-1,4-diazepan-5-yl)methyl)-2-naphthamide] |
| < 10000 | O=C(NC[C@@H]1CCN(CC(c2ccccc2)c2ccccc2)C(=O)[C@H](Cc2ccccc2N2CCCCC2)N1)c1ccc2ccccc2c1 [Compound 71, N-(((3S,5S)-1-(2,2-diphenylethyl)-2-oxo-3-(2-(piperidin-1-yl)benzyl)-1,4-diazepan-5-yl)methyl)-2-naphthamide] |
| < 1000 | CCCC[C@@H]1N[C@H](CNC(=O)c2ccc3ccccc3c2)CCN(CC(c2ccccc2)c2ccccc2)C1=O [Compound 49, N-(((3S,5S)-3-butyl-1-(2,2-diphenylethyl)-2-oxo-1,4-diazepan-5-yl)methyl)-2-naphthamide] |
| < 1000 | O=C(NC[C@@H]1CCN(CC(c2ccccc2)c2ccccc2)C(=O)[C@H](CCC2CCCCC2)N1)c1ccc2ccccc2c1 [Compound 59, N-(((3S,5S)-3-(2-cyclohexylethyl)-1-(2,2-diphenylethyl)-2-oxo-1,4-diazepan-5-yl)methyl)-2-naphthamide] |
| < 10000 | O=C(NC[C@@H]1CCN(CC(c2ccccc2)c2ccccc2)C(=O)[C@H](Cc2ccncc2)N1)c1ccc2ccccc2c1 [Compound 48, N-(((3S,5S)-1-(2,2-diphenylethyl)-2-oxo-3-(pyridin-4-ylmethyl)-1,4-diazepan-5-yl)methyl)-2-naphthamide] |
| < 1000 | NC(=O)CC[C@@H]1N[C@H](CNC(=O)c2ccc3ccccc3c2)CCN(CC(c2ccccc2)c2ccccc2)C1=O [Compound 52, N-(((3S,5S)-3-(3-amino-3-oxopropyl)-1-(2,2-diphenylethyl)-2-oxo-1,4-diazepan-5-yl)methyl)-2-naphthamide] |
| < 1000 | O=C(NC[C@@H]1CCN(CC(c2ccccc2)c2ccccc2)C(=O)[C@H](CCC(=O)N2CCCCC2)N1)c1ccc2ccccc2c1 [Compound 55, N-(((3S,5S)-1-(2,2-diphenylethyl)-2-oxo-3-(3-oxo-3-(piperidin-1-yl)propyl)-1,4-diazepan-5-yl)methyl)-2-naphthamide] |
| < 1000 | O=C(NC[C@@H]1CCN(CC(c2ccccc2)c2ccccc2)C(=O)[C@H](CC2CCCCC2)N1)c1ccc2ccccc2c1 [Compound 53, N-(((3S,5S)-3-(cyclohexylmethyl)-1-(2,2-diphenylethyl)-2-oxo-1,4-diazepan-5-yl)methyl)-2-naphthamide] |
| < 1000 | N=C(N)NOCC[C@@H]1N[C@H](CNC(=O)c2ccc3ccccc3c2)CCN(CC(c2ccccc2)c2ccccc2)C1=O [Compound 46, N-(((3S,5S)-1-(2,2-diphenylethyl)-3-(2-(guanidinooxy)ethyl)-2-oxo-1,4-diazepan-5-yl)methyl)-2-naphthamide] |

Reference: patent US8440653B2, “3-substituted-1,4-diazepan-2-one melanocortin-5 receptor antagonists” (Mimetica Pty Ltd, priority 2008, dated 2013)
